Consider 3 compounds from patent US20230248744A1, “25-HYDROXYVITAMIN D2 AND/OR D3 FOR USE IN OBESITY” (CARBOGEN AMCIS B.V., priority 2020, published 2023).

Where two headings read alike, the source gives them in different places. Where only a bound is given, the exact number is not on record here.

A short description of data set [1]: Double-blind randomized crossover pharmacokinetic study, single oral 900 μg vitamin D3 or 25(OH)D3. Format: in vivo, human. The note with it: for Cmax / Tmax / concentration at 14 days / half-life / AUC: both sexes, human, serum, po, single oral 900 μg, mean ± SEM; for Cmax / Tmax / half-life / AUC: 900 ug; for concentration at 14 days: 900 μg, read-out: Ctrough (trough level at day 14); for half-life: read-out: T1/2 (elimination half-life) (converted). As for the experimental part:
The conclusions as presented herein are based on the following experiments: In a double-blinded cross-over study single high dosages (900 μg total in two soft gel capsules containing 450 μg) of either vitamin D3 or 25(OH)D3 were administered to vitamin D-deficient volunteers including healthy controls as well as subjects with a history of malabsorption. At the outset, the BMI was determined. Blood samples were then taken at baseline and at 2, 4, 6, 8, and 12 hours as well as 1, 2, 3, 7, and 14 days after administration (FIG. 2). All the samples were analyzed for their contents in vitamin D3 per se as well as 25(OH)D3. […] In addition, peak levels were more rapidly reached with 25(OH)D3 than with vitamin D3 (see FIG. 5). The immediate increase in serum 25(OH)D3 compared to the delayed increase observed with vitamin D3 supports the concept that 25(OH)D3 is being rapidly absorbed from the small intestine into the portal circulation, whereas vitamin D3 first needs to be incorporated into the chylomicrons which are absorbed into the lymphatic system.
The pharmacokinetic parameters of orally administered 25(OH)D3 and vitamin D3 (both provided for formulation in form of visually identical soft-gel pills) were studied based on the corresponding serum concentration-time curves in healthy adults and adults with a history of intestinal malabsorption (see FIG. 2). Cinical safety has been evaluated by monitoring serum calcium, phosphorus, parathyroid hormone (PTH) and 25(OH)D levels at the beginning and end of the study. Furthermore, the distribution of supplemented 25(OH)D3 (or 25(OH)D2) into adipose tissue and the role it is playing there was also studied.
Serum levels of calcium, phosphorus, albumin, creatinine and intact parathyroid hormone (iPTH) were determined at baseline and at the end of each 14-day pharmacokinetic study (see Table 4). The pharmacokinetic parameters have been determined by evaluating the serum concentration-time curves in patients with malabsorption syndrome and healthy controls (Tables 5 and 6).
The primary outcomes of the study are the serum pharmacokinetic parameters of 25(OH)D3 and vitamin D3 after a single oral administration of 900 μg of each in a double-blind randomized crossover study.
Adult patients (18 years and older) with a history of intestinal malabsorption (n=10) and healthy adult volunteers (n=10); (of both sexes and all ethnicities) has been recruited in this randomized double-blinded crossover study. The BMI has been determined and recorded at baseline. All subjects have been prescreened for 25(OH)D levels to include subjects with 25(OH)D<30 ng/mL. The subjects have been randomized to receive two oral doses of 450 μg taken simultaneously (total 900 μg) of either vitamin D3 or 25(OH)D3. Blood samples were taken at baseline and at 2, 4, 6, 8, 12 hours and days 1, 2, 3, 7 and 14. There was a two weeks washout period before the subject received in a double blinded manner, two oral doses of 450 μg taken simultaneously (total 900 μg) of either 25(OH)D3 or vitamin D3 (depending on which one they took in the randomization) any time after the 2 week washout. Blood samples were taken at baseline and at 2, 4, 6, 8, 12 hours and days 1, 2, 3, 7 and 14 days. Serum levels of calcium, phosphorus, albumin, creatinine, and intact parathyroid hormone (iPTH) were obtained at baseline and at day 14 for each arm (or within a reasonable time if the study participant was unable to come on the exact day).
The individuals participating in the study had, after signing a consent form, been randomized by a computer randomization chart in a blinded manner to receive two oral doses of 450 μg taken simultaneously (total 900 μg) of either vitamin D3 or 25(OH)D3. Blood samples have been taken at baseline and at 2, 4, 6, 8, 12 hours and days 1, 2, 3, 7 and 14. […]

The conditions of data set [2]: cited from earlier work.
For data set [3] the following is noted: single or multiple oral doses of 1250 μg vitamin D, or a dose of 900 μg 25(OH)D3; cited from earlier work.
The conditions of data set [4]: cited from earlier work. This is another data set of the same source.
For data set [5] the following is noted: vitamin D deficient postmenopausal women; single p.o. bolus of 140 μg of each substance; cited from earlier work.
The conditions of data set [6]: cited from earlier work. This is another data set of the same source.
Setting [7] is: healthy participants with higher BMI (N = 5).
The mark [8] stands for this setting: healthy participants with lower BMI (N = 5).
The mark [9] stands for this setting: patients with fat malabsorption (N = 6).

The term Cmax denotes the highest concentration seen after dosing. The Tmax is the time from dosing to the highest level. The term AUC denotes the area under the concentration-time curve, a measure of exposure. Low readings indicate low exposure, high ones high exposure. Regarding `C=C1CC[C@H](O)C/C1=C/C=C1\CCC[C@]2(C)[C@@H]([C@H](C)CCCC(C)(C)O)CC[C@@H]12` [25-hydroxyvitamin D3], the “time at which the peak of the serum concentration is reached” value in data set [1] (FIG. 5, oral 900 μg) was roughly 8 h. Besides, the “bioavailability in subjects with a history of vitamin D/fat malabsorption” value in data set [1] (after administration of the respective product, FIGS. 3a and b) is “almost normal”. In addition, the Cmax turned out to be 23.1 ± 4.6 ng/mL in data set [1] (healthy participants (N = 10)), 21.4 ± 8 ng/mL in data set [1] (setting [7]), 24.8 ± 5.5 ng/mL in data set [1] (setting [8]) and 23.2 ± 6.8 ng/mL in data set [1] (setting [9]). The Tmax stood at 11.2 ± 4.1 h in data set [1] (healthy participants (N = 10)), 15.2 ± 8.2 h in data set [1] (setting [7]), 7.2 ± 0.5 h in data set [1] (setting [8]) and 5.3 ± 0.7 h in data set [1] (setting [9]). The concentration at 14 days in data set [1] (healthy participants (N = 10)) is 6.1 ± 1.3 ng/mL; in data set [1] (setting [7]), 4.6 ± 1.4 ng/mL; in data set [1] (setting [8]), 7.6 ± 2.1 ng/mL; in data set [1] (setting [9]) it was 6.7 ± 1.5 ng/mL. Besides, the half-life in data set [1] (healthy participants (N = 10)) was 60.6 ± 7.9 h; in data set [1] (setting [7]) it was 55 ± 10.7 h; in data set [1] (setting [8]), 66.2 ± 12.3 h; in data set [1] (setting [9]), 65.7 ± 29.9 h. Further, the AUC was 3130 ± 545 ng·h/mL in data set [1] (healthy participants (N = 10), serum level of the administered substance); 2620 ± 855 ng·h/mL in data set [1] (setting [7]); 3630 ± 690 ng·h/mL in data set [1] (setting [8]); 2670 ± 735 ng·h/mL in data set [1] (patients with fat malabsorption (N = 6), serum level of the administered substance). Moreover, the “power of oral calcifediol relative to oral cholecalciferol (vitamin D3)” value in data set [2] is on record as “three- to five-time more powerful”. For the same compound, the reports of toxicity result in data set [3] was “toxicity has never been reported”. Further, in data set [4] (after bolus intravenous dose), the “increase of 25(OH)D by 24 hours” value is recorded as 40 ng/mL. Besides, in data set [4] (bolus intravenous 448 μg or 900 μg slow release), the toxicity result was “No toxicity was observed”. Moreover, the “increase of peak concentration of 25(OH)D above baseline” value in data set [4] (bolus intravenous dose of 448 μg) is recorded as “approximately 110 ng/mL”. Besides, the “toxicity in pharmacokinetic study” value in data set [4] (oral single dose of 900 μg) is listed as “did not show any untoward toxicity”. The “Cmax increase over baseline of 25(OH)D3” value in data set [5] is recorded as 24.7 ng/mL.
On to `C=C1CC[C@H](O)C/C1=C/C=C1\CCC[C@]2(C)[C@@H]([C@H](C)/C=C/[C@H](C)C(C)C)CC[C@@H]12` [vitamin D2, ergocalciferol], for which the “serum vitamin D concentration reached” value in data set [6] (five of the seven patients with intestinal fat malabsorption, oral 50,000 IU) was no more than 10 ng/mL.
For vitamin D, the “peak serum vitamin D concentration” value in data set [6] (single oral dose of 1.25 mg (50'000 IU), baseline less than 5 ng/mL) is “over 50 ng/mL”. In addition, in data set [6] (single oral dose of 1.25 mg), the “time of fall of serum vitamin D to baseline levels” value is given as no more than 3 days and the “time of peak serum vitamin D concentration” value is no more than 12 h.
